Measurements published in patent publication US11884661B2, “3-substituted propionic acids as αV integrin inhibitors” (BRISTOL-MYERS SQUIBB COMPANY, priority 2016, dated 2024).

Experiments:
human αVβ1 = human αVβ1 (Homo sapiens, UniProt P05556+P06756); assay: human αVβ1 HTRF binding assay
Protocol: (§1) All binding assays used the HTRF (homogeneous time resolved fluorescence) technology from Cisbio International, therefore all assays are described as HTRF binding assays. The assay results for the Examples are listed above together with the characterization data. The HTRF binding assays are established for the following integrins: human αVβ6, human αVβ1, human αVβ3, human αVβ5, and human αVβ8. All assays used the following assay buffer: 20 mM Tris, pH 7.4, 1 mM MgCl2, 1 mM MnCl2, 0.01% Tween 20, and 0.01% BSA. Alternatively, a SPA-based assay was used for evaluation of receptor binding.
(§2) The following describes the components and a representative procedure for the human αVβ6 HTRF binding assay: Recombinant human αVβ6 Integrin (R & D systems, 3817-AV) was biotinylated. Biotinylated human αVβ6 Integrin was added to assay vessel at a final concentration of 1.25 nM. FITC-conjugated fibronectin (Cytoskeleton, FNR02) was then added at the final concentration of 5 nM. The mixture was centrifuged at 600 rpm for three minutes using Thermo Fisher Heraeus Multifuge X3 centrifuge and then incubated at RT for an hour. Streptavidin Terbium (Cisbio international 610STLB) was then added at the final concentration of 0.625 nM. The resulting mixture was centrifuged at 600 rpm for three minutes using Thermo Fisher Heraeus Multifuge X3 centrifuge and then incubated at room temperature overnight in dark before reading HTRF signals.

human αVβ6 = molecular target: T1, human αVβ6 (Homo sapiens, UniProt P06756+P18564); assay: human αVβ6 HTRF binding assay; settings: recombinant human αVβ6 integrin, FITC-conjugated fibronectin
T1 construct: purchased R & D systems 3817-AV
T1 sequence (P06756 31-992 limits assumed): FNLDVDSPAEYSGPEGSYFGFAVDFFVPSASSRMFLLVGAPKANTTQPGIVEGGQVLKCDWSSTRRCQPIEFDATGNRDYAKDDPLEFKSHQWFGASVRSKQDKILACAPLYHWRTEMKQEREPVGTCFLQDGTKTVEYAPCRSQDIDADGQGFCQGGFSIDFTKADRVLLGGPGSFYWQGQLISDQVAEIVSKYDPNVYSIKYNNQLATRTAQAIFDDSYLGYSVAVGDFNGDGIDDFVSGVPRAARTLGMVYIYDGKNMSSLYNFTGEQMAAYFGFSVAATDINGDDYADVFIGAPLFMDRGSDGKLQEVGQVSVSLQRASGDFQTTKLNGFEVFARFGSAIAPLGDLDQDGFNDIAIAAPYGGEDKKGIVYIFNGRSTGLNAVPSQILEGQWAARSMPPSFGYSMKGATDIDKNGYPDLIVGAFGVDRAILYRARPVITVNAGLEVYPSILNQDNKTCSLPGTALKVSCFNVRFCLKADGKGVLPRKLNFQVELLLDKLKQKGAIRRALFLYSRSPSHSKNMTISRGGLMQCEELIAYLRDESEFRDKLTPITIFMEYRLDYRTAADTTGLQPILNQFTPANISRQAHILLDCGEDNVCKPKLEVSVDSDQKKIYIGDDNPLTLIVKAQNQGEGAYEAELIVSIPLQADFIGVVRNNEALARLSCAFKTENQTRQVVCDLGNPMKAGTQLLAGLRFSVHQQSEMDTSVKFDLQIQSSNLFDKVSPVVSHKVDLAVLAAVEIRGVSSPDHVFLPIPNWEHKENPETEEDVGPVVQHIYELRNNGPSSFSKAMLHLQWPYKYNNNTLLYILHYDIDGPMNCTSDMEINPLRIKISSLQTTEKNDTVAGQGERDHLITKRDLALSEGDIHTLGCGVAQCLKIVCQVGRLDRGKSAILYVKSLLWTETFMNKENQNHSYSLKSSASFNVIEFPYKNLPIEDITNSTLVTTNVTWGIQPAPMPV
T1 sequence (P18564 22-707 limits assumed): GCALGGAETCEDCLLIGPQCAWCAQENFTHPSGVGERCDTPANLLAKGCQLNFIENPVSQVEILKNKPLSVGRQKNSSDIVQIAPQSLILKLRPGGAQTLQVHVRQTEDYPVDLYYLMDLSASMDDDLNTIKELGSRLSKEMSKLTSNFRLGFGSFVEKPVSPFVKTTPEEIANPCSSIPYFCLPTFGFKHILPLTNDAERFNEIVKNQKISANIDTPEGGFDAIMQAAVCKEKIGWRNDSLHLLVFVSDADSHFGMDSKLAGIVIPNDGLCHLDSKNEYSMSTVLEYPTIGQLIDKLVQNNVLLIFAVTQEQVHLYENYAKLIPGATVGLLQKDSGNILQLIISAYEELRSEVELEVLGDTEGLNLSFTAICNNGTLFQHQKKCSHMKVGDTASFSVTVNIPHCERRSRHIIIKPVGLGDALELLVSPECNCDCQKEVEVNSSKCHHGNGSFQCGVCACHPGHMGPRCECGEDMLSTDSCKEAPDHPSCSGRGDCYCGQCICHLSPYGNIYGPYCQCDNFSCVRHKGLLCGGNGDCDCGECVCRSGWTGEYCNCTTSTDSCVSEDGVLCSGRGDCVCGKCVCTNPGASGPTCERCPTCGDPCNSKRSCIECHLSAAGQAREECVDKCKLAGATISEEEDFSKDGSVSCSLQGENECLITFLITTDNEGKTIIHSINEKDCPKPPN
How it was run: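 Biotinylated recombinant αVβ6 (1.25 nM final) incubated with FITC-fibronectin (5 nM) 1 h at RT, then streptavidin-terbium (0.625 nM) added and incubated overnight at RT in the dark before HTRF read. Buffer: 20 mM Tris pH 7.4, 1 mM MgCl2, 1 mM MnCl2, 0.01% Tween 20, 0.01% BSA.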

human αVβ3 = human αVβ3 (Homo sapiens, UniProt P05106+P06756); assay: human αVβ3 HTRF binding assay
human αVβ3, sequence (P06756 31-992 limits assumed): as the sequence (P06756 31-992 limits assumed) above
human αVβ3, sequence (P05106 27-718 limits assumed): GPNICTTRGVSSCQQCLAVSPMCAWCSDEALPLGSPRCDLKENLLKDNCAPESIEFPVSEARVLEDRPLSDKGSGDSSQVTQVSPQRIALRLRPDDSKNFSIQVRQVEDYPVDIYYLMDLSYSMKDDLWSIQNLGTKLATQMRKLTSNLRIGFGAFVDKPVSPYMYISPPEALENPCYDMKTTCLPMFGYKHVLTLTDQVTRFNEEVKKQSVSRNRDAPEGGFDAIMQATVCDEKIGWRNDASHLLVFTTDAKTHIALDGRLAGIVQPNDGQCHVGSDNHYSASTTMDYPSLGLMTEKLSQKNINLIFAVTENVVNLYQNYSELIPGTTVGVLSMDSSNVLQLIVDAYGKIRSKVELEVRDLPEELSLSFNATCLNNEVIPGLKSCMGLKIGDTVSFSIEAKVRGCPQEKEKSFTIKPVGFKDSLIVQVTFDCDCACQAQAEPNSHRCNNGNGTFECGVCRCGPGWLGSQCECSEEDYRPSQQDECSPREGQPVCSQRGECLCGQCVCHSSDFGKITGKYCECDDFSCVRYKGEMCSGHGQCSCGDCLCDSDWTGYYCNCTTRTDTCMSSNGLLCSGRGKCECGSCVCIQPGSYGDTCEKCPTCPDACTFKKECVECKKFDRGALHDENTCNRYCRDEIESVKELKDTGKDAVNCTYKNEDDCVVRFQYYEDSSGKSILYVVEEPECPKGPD
Protocol: as §1, §2

human αVβ8 = human αVβ8 (Homo sapiens, UniProt P06756+P26012); assay: human αVβ8 HTRF binding assay
human αVβ8, sequence (P06756 31-992 limits assumed): as the sequence (P06756 31-992 limits assumed) above
human αVβ8, sequence (P26012 43-684 limits assumed): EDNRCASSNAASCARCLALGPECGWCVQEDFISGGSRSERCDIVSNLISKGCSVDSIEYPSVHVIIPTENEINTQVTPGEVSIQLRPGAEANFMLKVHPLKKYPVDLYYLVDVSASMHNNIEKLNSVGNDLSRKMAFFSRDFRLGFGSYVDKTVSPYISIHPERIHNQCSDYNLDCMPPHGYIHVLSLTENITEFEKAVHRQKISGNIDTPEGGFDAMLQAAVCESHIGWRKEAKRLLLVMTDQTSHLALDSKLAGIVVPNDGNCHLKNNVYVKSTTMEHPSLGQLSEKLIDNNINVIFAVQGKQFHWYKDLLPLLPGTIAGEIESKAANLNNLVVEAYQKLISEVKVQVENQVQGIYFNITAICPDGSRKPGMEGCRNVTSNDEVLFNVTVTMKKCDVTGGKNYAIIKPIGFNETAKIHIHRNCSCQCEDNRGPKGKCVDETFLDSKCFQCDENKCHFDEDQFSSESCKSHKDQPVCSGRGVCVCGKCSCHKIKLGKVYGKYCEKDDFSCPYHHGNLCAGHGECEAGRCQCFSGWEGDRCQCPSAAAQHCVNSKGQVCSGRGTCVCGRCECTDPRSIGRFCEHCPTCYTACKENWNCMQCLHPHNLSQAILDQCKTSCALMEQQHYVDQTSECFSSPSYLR
Protocol: as §1, with “binding. […]” for “binding.”

human αVβ5 = human αVβ5 (Homo sapiens, UniProt P06756+P18084); assay: human αVβ5 HTRF binding assay
human αVβ5, sequence (P06756 31-992 limits assumed): as the sequence (P06756 31-992 limits assumed) above
human αVβ5, sequence (P18084 24-719 limits assumed): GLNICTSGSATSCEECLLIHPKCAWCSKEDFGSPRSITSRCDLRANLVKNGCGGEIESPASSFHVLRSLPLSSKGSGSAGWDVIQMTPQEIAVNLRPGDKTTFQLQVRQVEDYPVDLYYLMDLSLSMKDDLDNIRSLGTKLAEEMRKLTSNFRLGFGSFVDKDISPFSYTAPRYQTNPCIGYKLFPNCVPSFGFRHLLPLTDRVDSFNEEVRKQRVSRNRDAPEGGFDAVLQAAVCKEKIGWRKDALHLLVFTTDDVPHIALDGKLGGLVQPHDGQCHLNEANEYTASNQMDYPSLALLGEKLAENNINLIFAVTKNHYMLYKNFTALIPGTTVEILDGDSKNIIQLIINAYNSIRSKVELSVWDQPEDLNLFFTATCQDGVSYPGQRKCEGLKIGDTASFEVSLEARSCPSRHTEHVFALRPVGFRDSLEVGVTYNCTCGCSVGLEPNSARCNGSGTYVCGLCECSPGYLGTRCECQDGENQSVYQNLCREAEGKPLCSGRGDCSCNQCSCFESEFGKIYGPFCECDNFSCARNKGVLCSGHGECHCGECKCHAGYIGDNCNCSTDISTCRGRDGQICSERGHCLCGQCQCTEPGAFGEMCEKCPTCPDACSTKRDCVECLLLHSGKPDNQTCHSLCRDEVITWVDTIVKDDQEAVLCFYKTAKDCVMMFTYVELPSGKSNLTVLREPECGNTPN
Protocol: as §1, with “binding. […]” for “binding.”

human αVβ1, sequence (P06756 31-992 limits assumed): as the sequence (P06756 31-992 limits assumed) above
human αVβ1, sequence (P05556 21-728 limits assumed): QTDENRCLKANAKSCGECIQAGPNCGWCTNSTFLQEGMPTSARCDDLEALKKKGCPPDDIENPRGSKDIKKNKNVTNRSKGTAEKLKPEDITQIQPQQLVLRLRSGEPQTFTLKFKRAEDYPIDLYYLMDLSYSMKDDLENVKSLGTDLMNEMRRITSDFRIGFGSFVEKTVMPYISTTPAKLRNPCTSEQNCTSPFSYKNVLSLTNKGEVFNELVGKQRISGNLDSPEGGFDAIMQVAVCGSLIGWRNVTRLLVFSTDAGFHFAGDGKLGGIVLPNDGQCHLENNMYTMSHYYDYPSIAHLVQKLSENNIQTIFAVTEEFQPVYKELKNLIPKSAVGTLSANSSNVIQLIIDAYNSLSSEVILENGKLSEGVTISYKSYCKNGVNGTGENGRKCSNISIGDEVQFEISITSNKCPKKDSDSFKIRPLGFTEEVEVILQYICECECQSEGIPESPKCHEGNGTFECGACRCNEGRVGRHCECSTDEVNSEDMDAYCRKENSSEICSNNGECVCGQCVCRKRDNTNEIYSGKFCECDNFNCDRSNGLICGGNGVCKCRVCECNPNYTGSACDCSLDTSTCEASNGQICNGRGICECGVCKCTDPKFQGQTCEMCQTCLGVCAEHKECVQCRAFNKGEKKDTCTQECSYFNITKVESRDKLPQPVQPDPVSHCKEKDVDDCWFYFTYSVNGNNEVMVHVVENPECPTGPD

Row | SMILES | IC50 (human αVβ1) [nM] | IC50 (human αVβ6) [nM] | IC50 (human αVβ3) [nM] | IC50 (human αVβ8) [nM] | IC50 (human αVβ5) [nM]
1 | COc1ccc(C(CC(=O)O)c2nc(CCCc3ccc4c(n3)NCCC4)cs2)cn1 (single isomer, unassigned) [Example 15, 3-(6-Methoxypyridin-3-yl)-3-(4-(3-(5,6,7,8-tetrahydro-1,8-naphthyridin-2-yl)propyl)thiazol-2-yl)propanoic acid] | 55 | 0.7 | 1.4 | 330 | 
2 | COc1ccc([C@H](CC(=O)O)N2CCC(CCCc3ccc4c(n3)NCCC4)C2)cn1 (stereo partly drawn) [Example 21, (3S)-3-(6-Methoxypyridin-3-yl)-3-(3-(3-(5,6,7,8-tetrahydro-1,8-naphthyridin-2-yl)propyl)pyrrolidin-1-yl)propanoic acid] | 6500 | 1.4 | 4.4 | 180 | 10
3 | COc1ccc(C(CC(=O)O)n2ccc(CCCCc3ccc4c(n3)NCCC4)n2)cn1 (racemic) [Example 1, (±)-3-(6-Methoxypyridin-3-yl)-3-(3-(4-(5,6,7,8-tetrahydro-1,8-naphthyridin-2-yl)butyl)-1H-pyrazol-1-yl)propanoic acid] |  | 6 | 2.4 | 262 | 1.5
4 | O=C(O)CC(c1cnc2ccccc2c1)n1ccc(CCCc2ccc3c(n2)NCCC3)n1 (racemic) [Example 29, (±)-3-(Quinolin-3-yl)-3-(3-(3-(5,6,7,8-tetrahydro-1,8-naphthyridin-2-yl)propyl)-1H-pyrazol-1-yl)propanoic acid] | 286 | 11.2 | 1.7 | 2900 | 6.5
5 | COc1ccc(C(CC(=O)O)n2ccc(CCCc3ccc4c(n3)NCCC4)n2)cn1 (racemic) [Example 2, (±)-3-(6-Methoxypyridin-3-yl)-3-(3-(3-(5,6,7,8-tetrahydro-1,8-naphthyridin-2-yl)propyl)-1H-pyrazol-1-yl)propanoic acid] |  | 6.8 | 2.7 | 420 | 0.34
6 | COc1ccc(C(CC(=O)O)n2ccc(CCCc3ccc4c(n3)NCCC4)n2)cn1 (single isomer, unassigned) [Example 3, 3-(6-Methoxypyridin-3-yl)-3-(3-(3-(5,6,7,8-tetrahydro-1,8-naphthyridin-2-yl)propyl)-1H-pyrazol-1-yl)propanoic acid] | 65 | 3.2 | 3.2 | 1120 | 11
7 | CCOc1ncc(C(CC(=O)O)n2ccc(CCCc3ccc4c(n3)NCCC4)n2)cn1 (racemic) [Example 27, (±)-3-(2-Ethoxypyrimidin-5-yl)-3-(3-(3-(5,6,7,8-tetrahydro-1,8-naphthyridin-2-yl)propyl)-1H-pyrazol-1-yl)propanoic acid] | 144 | 9.4 | 2.3 | 1800 | 0.76
8 | COc1ccc(C(CC(=O)O)c2nc(CCCCc3ccc4c(n3)NCCC4)cs2)cn1 (single isomer, unassigned) [Example 14, 3-(6-Methoxypyridin-3-yl)-3-(4-(4-(5,6,7,8-tetrahydro-1,8-naphthyridin-2-yl)butyl)thiazol-2-yl)propanoic acid] | 241 | 2.1 | 1.9 | 510 | 11

Second part, the compound after the results:

Row | IC50 (human αVβ1) [nM] | IC50 (human αVβ6) [nM] | IC50 (human αVβ3) [nM] | IC50 (human αVβ8) [nM] | IC50 (human αVβ5) [nM] | SMILES
9 | 63 | 5.2 | 7.5 | 3300 |  | Cc1cc(C)n(-c2cccc(C(CC(=O)O)n3ccc(CCCc4ccc5c(n4)NCCC5)n3)c2)n1 (racemic) [Example 31, (±)-3-(3-(3,5-Dimethyl-1H-pyrazol-1-yl)phenyl)-3-(3-(3-(5,6,7,8-tetrahydro-1,8-naphthyridin-2-yl)propyl)-1H-pyrazol-1-yl)propanoic acid]
10 |  | 13 | 8 | 770 | 0.87 | COc1cncc(C(CC(=O)O)n2nccc2CCCc2ccc3c(n2)NCCC3)c1 (single isomer, unassigned) [Example 63, 3-(5-methoxypyridin-3-yl)-3-(5-(3-(5,6,7,8-tetrahydro-1,8-naphthyridin-2-yl)propyl)-1H-pyrazol-1-yl)propanoic acid]
11 | 100 | 5.7 | 11 | 2010 | 230 | O=C(O)CC(c1ccc2c(c1)CCO2)n1ccc(CCCc2ccc3c(n2)NCCC3)n1 (racemic) [Example 30, (±)-3-(2,3-Dihydrobenzofuran-5-yl)-3-(3-(3-(5,6,7,8-tetrahydro-1,8-naphthyridin-2-yl)propyl)-1H-pyrazol-1-yl)propanoic acid]
12 | 66 | 2.1 | 2.3 | 860 |  | COc1ccc(C(CC(=O)O)c2nc(CCCc3ccc4c(n3)NCCC4)cs2)cc1F (single isomer, unassigned) [Example 38, 3-(3-Fluoro-4-methoxyphenyl)-3-(4-(3-(5,6,7,8-tetrahydro-1,8-naphthyridin-2-yl)propyl)thiazol-2-yl)propanoic acid]
13 | 43 | 4.3 | 5.5 | 2700 |  | O=C(O)CC(c1cccc(N2CCOCC2)c1)n1ccc(CCCc2ccc3c(n2)NCCC3)n1 (racemic) [Example 32, (±)-3-(3-Morpholinophenyl)-3-(3-(3-(5,6,7,8-tetrahydro-1,8-naphthyridin-2-yl)propyl)-1H-pyrazol-1-yl)propanoic acid]
14 |  | 17 | 28 | 2600 | 10 | COc1ccc(C(CC(=O)O)c2ncc(CCCCc3ccc4c(n3)NCCC4)s2)cc1F (single isomer, unassigned) [Example 40]
15 | 160 | 2 | 1.7 | 870 | 1.1 | COc1ccc(C(CC(=O)O)c2nc(CCCCc3ccc4c(n3)NCCC4)cs2)cc1F (single isomer, unassigned) [Example 37, 3-(3-Fluoro-4-methoxyphenyl)-3-(4-(4-(5,6,7,8-tetrahydro-1,8-naphthyridin-2-yl)butyl)thiazol-2-yl)propanoic acid]
